Assay results taken from patent US9133167B2, “Antibacterial quinoline derivatives” (JANSSEN PHARMACEUTICA NV, priority 2012, dated 2015).
Converted amounts (≈) assume the structure as drawn.

System: Staphylococcus aureus (ATCC29213)
Test: Microtitre plate assay, IC90 for bacterial growth, Staphylococcus aureus strain
Assay type: cell-based
Conditions: 90% inhibitory concentration for bacterial growth, 24 hours at 37° C.
Experimental: D.2. In-Vitro Method for Testing Compounds for Anti-Bacterial Activity Against a Non-Mycobacterial Strain
Preparation of Bacterial Suspensions for Susceptibility Testing:
The bacteria used in this study were grown overnight in flasks containing 100 ml Mueller-Hinton Broth (Becton Dickinson—cat. no. 275730) in sterile de-ionized water, with shaking, at 37° C. Stocks (0.5 ml/tube) were stored at −70° C. until use. Bacteria titrations were performed in microtiter plates to detect the TCID50, in which TCID50 represents the dilution that gives rise to bacterial growth in 50% of inoculated cultures. In general, an inoculum level of approximately 100 TCID50 was used for susceptibility testing.
Anti Bacterial Susceptibility Testing: IC90 Determination
Flat-bottom, sterile 96-well plastic microtiter plates were filled with 180 μl of sterile deionized water, supplemented with 0.25% BSA. Subsequently, stock solutions (7.8× final test concentration) of compounds were added in 45 μl volumes in column 2 Serial five-fold dilutions (45 μl in 180 μl) were made directly in the microtiter plates from column 2 to reach column 11. Untreated control samples with (column 1) and without (column 12) inoculum were included in each microtiter plate. Depending on the bacteria type, approximately 10 to 60 CFU per well of bacteria inoculum (100 TCID50), in a volume of 100 μl in 2.8× Mueller-Hinton broth medium, was added to the rows A to H, except column 12. The same volume of broth medium without inoculum was added to column 12 in row A to H. The cultures were incubated at 37° C. for 24 hours under a normal atmosphere (incubator with open air valve and continuous ventilation). At the end of incubation, one day after inoculation, the bacterial growth was quantitated fluorometrically. Therefore resazurin (0.6 mg/ml) was added in a volume of 20 μl to all wells 3 hours after inoculation, and the plates were re-incubated overnight. A change in colour from blue to pink indicated the growth of bacteria. The fluorescence was read in a computer-controlled fluorometer (Cytofluor Biosearch) at an excitation wavelength of 530 nm and an emission wavelength of 590 nm. The % growth inhibition achieved by the compounds was calculated according to standard methods. The IC90 (expressed in μg/ml) was defined as the 90% inhibitory concentration for bacterial growth. The results are shown in Table 7 for an assay using a Staphylococcus aureus strain.

Row | IC90 (μg/ml) STA B29213 [µg/mL] | Structure (SMILES)
1 | 14.96 (≈ 31.6 µM) | COc1nc2ccc(Cl)cc2cc1C(c1ccccc1)C1(O)CCN(Cc2ccccc2)CC1 (racemic) [Compound 33]
2 | >47.23 | O=C(O)/C=C/C(=O)O.OC1(C(c2ccc(Cl)cc2)c2cc3cc(Br)ccc3nc2N2CCOCC2)CCN(Cc2ccccc2)CC1 (stereo not drawn) [Compound 77]
3 | >31.84 | COc1nc2ccc(-c3ccco3)cc2cc1C(c1ccccc1)C1(O)CCN(Cc2ccccc2)CC1 (racemic) [Compound 37]
4 | >43.03 | COc1nc2ccc(Br)cc2cc1C(c1ccc(Cl)cc1)C1(O)CCN(Cc2ccccc2)CC1.O=C(O)/C=C/C(=O)O (stereo not drawn) [Compound 35]
5 | 20.32 | COc1nc2ccc(Br)cc2cc1C(c1cccnc1)C1(O)CCN(Cc2ccccc2)CC1.O=C(O)/C=C/C(=O)O (stereo not drawn) [Compound 57]
6 | >44.89 | COc1nc2ccc(Br)cc2cc1C(c1ccc(Cl)c(F)c1)C1(O)CCN(Cc2ccccc2)CC1.O=C(O)/C=C/C(=O)O (stereo not drawn) [Compound 53]
7 | >44.46 | COc1nc2ccc(-c3cccnc3)cc2cc1C(c1ccc(Cl)cc1)C1(O)CCN(Cc2ccc(C)cc2)CC1.O=C(O)/C=C/C(=O)O (racemic) [Compound 71]
8 | >41.36 | COc1nc2ccc(C(C)C)cc2cc1C(c1ccc(Cl)cc1)C1(O)CCN(Cc2ccccc2)CC1.O=C(O)/C=C/C(=O)O (stereo not drawn) [Compound 90]
9 | >32.54 | COc1nc2ccc(-c3ccncc3)cc2cc1C(c1ccccc1)C1(O)CCN(Cc2ccccc2)CC1 (racemic) [Compound 31]
10 | 20.60 (≈ 39.8 µM) | COc1nc2cc(Br)ccc2cc1C(c1ccccc1)C1(O)CCN(Cc2ccccc2)CC1 (racemic) [Compound 43]
11 | >33.79 | COc1nc2ccc(Br)cc2cc1C(c1cccc(F)c1)C1(O)CCN(Cc2ccccc2)CC1 (racemic) [Compound 84]
12 | >43.95 | COc1nc2ccc(C(F)(F)F)cc2cc1C(c1ccc(Cl)cc1)C1(O)CCN(Cc2ccccc2)CC1.O=C(O)/C=C/C(=O)O (stereo not drawn) [Compound 86]
13 | >43.03 | COc1nc2ccc(Br)cc2cc1C(c1cccc(Cl)c1)C1(O)CCN(Cc2ccccc2)CC1.O=C(O)/C=C/C(=O)O (stereo not drawn) [Compound 60]
14 | >44.60 | COc1nc2ccc(Br)cc2cc1C(c1ccc2ccccc2c1)C1(O)CCN(Cc2ccccc2)CC1.O=C(O)/C=C/C(=O)O (stereo not drawn) [Compound 56]
15 | 32.85 | COc1nc2ccc(Br)cc2cc1C(c1ccc(Cl)cc1)C1(O)CCN(Cc2ccccc2)CC1.O=C(O)C(=O)O (stereo not drawn) [Compound 36]
16 | >29.57 | COc1ccc2nc(OC)c(C(c3ccccc3)C3(O)CCN(Cc4ccccc4)CC3)cc2c1 (racemic) [Compound 34]
17 | 17.45 (≈ 31.6 µM) | COc1nc2ccc(Br)cc2cc1C(c1cccc(Cl)c1)C1(O)CCN(Cc2ccccc2)CC1 (stereo not drawn) [Compound 59]
18 | >44.06 | COc1nc2ccc(Br)cc2cc1C(c1ccc(Cl)c(C)c1)C1(O)CCN(Cc2ccccc2)CC1.O=C(O)/C=C/C(=O)O (stereo not drawn) [Compound 49]
19 | >44.71 | COc1nc2ccc(-c3ccco3)cc2cc1C(c1ccc(Cl)cc1)C1(O)CCN(Cc2ccc(C)cc2)CC1.O=C(O)/C=C/C(=O)O (racemic) [Compound 70]
20 | >43.02 | COc1nc2ccc(-c3ccco3)cc2cc1C(c1ccc(Cl)cc1)C1(O)CCN(Cc2ccccc2)CC1.O=C(O)/C=C/C(=O)O (racemic) [Compound 64]
21 | >28.69 | CSc1nc2ccccc2cc1C(c1ccccc1)C1(O)CCN(Cc2ccccc2)CC1 (racemic) [Compound 32]

Same assay, conditions: 90% inhibitory concentration for bacterial growth, 24 hours at 37° C., read-out: IC90 (μg/ml) STA B29213

Row | IC90 [µg/mL] | Structure (SMILES)
22 | > 34.8 | COc1nc2ccc(Br)cc2cc1[C@H](c1ccc(Cl)cc1)C1(O)CCN(Cc2ccccc2)CC1 [Compound 8]
23 | > 32.5 | COc1nc2ccc(-c3ccccc3)cc2cc1C(c1ccccc1)C1(O)CCN(Cc2ccccc2)CC1 (stereo not drawn) [Compound 4]
24 | > 34.8 | COc1nc2ccc(Br)cc2cc1[C@@H](c1ccc(Cl)cc1)C1(O)CCN(Cc2ccccc2)CC1 [Compound 7]
